Several values for one entry are separate records, joined by “and”; a condition that tells them apart may be missing. Equal entries are not always repeated.
Target: T1, soybean lipoxygenase (model enzyme for 5-LOX) (Glycine max, UniProt P08170)
T1 sequence (P08170 1-839): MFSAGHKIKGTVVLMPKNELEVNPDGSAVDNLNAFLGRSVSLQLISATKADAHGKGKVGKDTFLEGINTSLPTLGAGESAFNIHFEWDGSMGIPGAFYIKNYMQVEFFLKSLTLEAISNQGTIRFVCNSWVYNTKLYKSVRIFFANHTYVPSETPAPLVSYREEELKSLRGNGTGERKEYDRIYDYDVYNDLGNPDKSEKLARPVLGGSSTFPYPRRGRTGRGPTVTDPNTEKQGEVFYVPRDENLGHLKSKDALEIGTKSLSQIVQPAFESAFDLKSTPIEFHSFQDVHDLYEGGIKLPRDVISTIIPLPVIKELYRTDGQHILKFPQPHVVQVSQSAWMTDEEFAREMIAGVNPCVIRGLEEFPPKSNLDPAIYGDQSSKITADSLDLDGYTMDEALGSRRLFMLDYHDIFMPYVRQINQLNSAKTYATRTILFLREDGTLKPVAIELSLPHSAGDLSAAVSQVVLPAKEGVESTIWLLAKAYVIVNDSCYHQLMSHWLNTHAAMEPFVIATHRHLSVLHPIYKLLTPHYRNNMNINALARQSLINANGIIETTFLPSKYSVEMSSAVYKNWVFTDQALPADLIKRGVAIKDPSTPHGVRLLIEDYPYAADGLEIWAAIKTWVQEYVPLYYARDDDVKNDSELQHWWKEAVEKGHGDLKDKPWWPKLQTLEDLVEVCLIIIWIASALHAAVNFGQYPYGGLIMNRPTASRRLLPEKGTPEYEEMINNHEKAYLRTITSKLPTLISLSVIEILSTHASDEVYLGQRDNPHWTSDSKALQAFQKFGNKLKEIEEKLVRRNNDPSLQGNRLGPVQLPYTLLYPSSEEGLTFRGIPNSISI
Assay: In vitro 5-LOX inhibition assay (soybean lipoxygenase, oxidation of linoleic acid at 234 nm)
Assay type: biochemical
Conditions: for IC50: dose-response, concentration range 6.25-100 µM
Experimental: Soybean lipoxygenase (linoleate 13S-lipoxygenase) is widely accepted as a model enzyme to screen compounds for LOX inhibition due to the high degree of binding site similarity between plant LOXs and animal 5-LOX[20]. LOX inhibition was assessed at room temperature, following the oxidation of linoleic acid to 13-hydroperoxylinoleic acid at 234 nm, according to a described procedure. The assay was performed by adding 20 μL of each eugenol derivative (1.3 mM) dissolved in phosphate buffer, 200 μL of phosphate buffer (pH 9.0) and 20 μL of soybean lipoxygenase solution (100 U). After 5 min of incubation at room temperature, the reaction was initiated by the addition of 20 μL of linoleic acid (4.18 mM in ethanol), absorbance being monitored during 3 min, using a Multiskan GO plate reader (Thermo Fisher Scientific; Waltham, MA, USA). The inhibition of enzyme activity was then calculated by comparing the reaction rate with the control (no compound). Quercetin (50 μM, final concentration) was used as a positive control.

[1] = 100 µM, cell-free preliminary screening

C=CCc1ccc(OCCCC(=O)OCC)c(OC)c1 [4e, ethyl-4-(4-allyl-2-methoxyphenoxy)butanoate]
5-LOX inhibitory activity (in words) [1]: statistically significant reduction in 5-LOX activity
IC50: < 100 µM and 76.2 µM

COc1cc(CC2CO2)ccc1OCCCOC(C)=O (stereo not drawn) [5d, 3-(2-methoxy-4-(oxiran-2-ylmethyl)phenoxy)propyl acetate]
5-LOX inhibitory activity (in words) [1]: highly active
IC50: < 100 µM and 36.9 µM

COCC(O)Cc1ccc(O)c(OC)c1 (stereo not drawn) [7a]
5-LOX inhibitory activity (in words) [1]: inactive

CCOCC(O)Cc1ccc(O)c(OC)c1 (stereo not drawn) [7b]
inhibition at 100 µM [1]: ~30%

COc1cc(CC(O)COC(C)(C)C)ccc1O (stereo not drawn) [7c, 4-(3-(tert-butoxy)-2-hydroxypropyl)-2-methoxyphenol]
5-LOX inhibitory activity (in words) [1]: almost full inhibition
IC50: < 100 µM and 33.8 µM

COc1cc(CC(O)COc2ccccc2)ccc1O (stereo not drawn) [7f]
5-LOX inhibitory activity (in words) [1]: inactive

CCCCCCC(C)NCC(O)Cc1ccc(OC)c(O)c1 (stereo not drawn) [8b]
5-LOX inhibitory activity (in words) [1]: did not show statistically significant inhibition

COc1cc(CC(O)CN2CCCCC2)ccc1O (stereo not drawn) [8c]
5-LOX inhibitory activity (in words) [1]: did not show statistically significant inhibition

COc1cc(CC(O)CN(C)c2ccccc2)ccc1O (stereo not drawn) [8d]
5-LOX inhibitory activity (in words) [1]: statistically significant activity

COc1cc(CC(O)CNc2ccccc2)ccc1O (stereo not drawn) [8e]
5-LOX inhibitory activity (in words) [1]: did not show statistically significant inhibition

COc1cc(CC(O)CNc2ccc(C#N)cc2)ccc1O (stereo not drawn) [8f]
5-LOX inhibitory activity (in words) [1]: did not show statistically significant inhibition

COc1ccc(NCC(O)Cc2ccc(O)c(OC)c2)cc1 (stereo not drawn) [8g]
5-LOX inhibitory activity (in words) [1]: statistically significant activity

COc1cccc(NCC(O)Cc2ccc(O)c(OC)c2)c1 (stereo not drawn) [8h]
5-LOX inhibitory activity (in words) [1]: statistically significant activity

COc1cc(CC(O)CNc2cccc(Br)c2)ccc1O (stereo not drawn) [8i]
5-LOX inhibitory activity (in words) [1]: did not show statistically significant inhibition

COc1cc(CC(O)C[N+](=O)[O-])ccc1O (stereo not drawn) [9a]
5-LOX inhibitory activity (in words) [1]: did not show statistically significant inhibition

C=CCc1ccc(O)c(O)c1 [compound 2, 4-allylbenzene-1,2-diol]
5-LOX inhibitory activity (in words) [1]: promising activity
IC50: < 100 µM and 34 µM

COc1cc(CC2CO2)ccc1O (stereo not drawn) [compound 6, 2-methoxy-4-(oxiran-2-ylmethyl)phenol]
5-LOX inhibitory activity (in words) [1]: did not show inhibitory activity
